The values that follow come from patent EP4768487A1, “FUSED LACTAM RING COMPOUND AND USE THEREOF” (Chengdu Zenitar Biomedical Technology Co., Ltd., priority 2023, dated 2025).

SMILES strings stand for the structures. Where two headings read alike, the source gives them in different places.

Usually IC50 stands for the concentration that inhibits the measured activity by half. What is called AUC(0-t) is the area under the concentration-time curve up to a stated or last time point. A low value points to less exposure. By Cmax is commonly meant the peak of the concentration-time curve. The half-life is the time in which the quantity being followed falls by half. The low end stands for rapid decline, the high end for slow decline. A word on the inhibition: it is the percentage by which the read-out fell short of the control.

The target of one data set is T1, PARP6 (Homo sapiens, UniProt Q2NL67).
T1 construct: purchased BPS 80556
T1 sequence (Q2NL67 whole entry): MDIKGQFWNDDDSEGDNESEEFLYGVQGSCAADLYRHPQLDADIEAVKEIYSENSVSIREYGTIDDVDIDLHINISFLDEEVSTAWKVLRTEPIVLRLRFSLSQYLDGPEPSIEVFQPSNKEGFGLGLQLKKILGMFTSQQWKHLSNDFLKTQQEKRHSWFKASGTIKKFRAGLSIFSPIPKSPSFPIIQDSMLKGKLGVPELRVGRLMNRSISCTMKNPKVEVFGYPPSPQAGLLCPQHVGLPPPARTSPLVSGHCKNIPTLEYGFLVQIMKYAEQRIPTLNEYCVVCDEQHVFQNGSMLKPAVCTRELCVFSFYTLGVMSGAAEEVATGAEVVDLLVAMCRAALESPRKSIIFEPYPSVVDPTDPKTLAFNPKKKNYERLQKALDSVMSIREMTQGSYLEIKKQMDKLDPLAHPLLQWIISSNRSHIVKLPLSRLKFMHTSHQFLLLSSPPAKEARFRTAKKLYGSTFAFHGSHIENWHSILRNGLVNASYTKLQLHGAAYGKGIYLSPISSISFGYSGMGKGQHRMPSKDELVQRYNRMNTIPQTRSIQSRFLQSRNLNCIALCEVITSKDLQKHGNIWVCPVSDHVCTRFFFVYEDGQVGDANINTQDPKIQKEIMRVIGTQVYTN
As to the kind of experiment: Assay for selectivity for PARP6 (ELISA, chemiluminescence). The data set is classed as biochemical. As for the experimental part: Main instruments and reagents for PARP6 assay
Experimental procedures: The enzymatic activity of PARP6 was assayed by the ELISA method. […] The IC50 values of the compounds were calculated using the nonlinear fitting formula in GraphPad software.

A short description of data set [1]: Cerebrospinal fluid and plasma distribution in vivo. The settings on record: rat, male rats, intravenous 5 mg/kg, n = 1. On the procedure: Experimental procedures: The compound was weighed out, a small amount of DMSO was added, and then a sodium chloride solution for injection was added to prepare a 5 mg·mL^-1 compound solution for later administration. […] 10 µL of the plasma and 10 µL of the cerebrospinal fluid were each added to a centrifuge tube, and 40 µL of acetonitrile containing 20 ng·mL^-1 internal standard SAHA was added for precipitation. […] The supernatant was collected and transferred to a sample vial for later analysis. Range of standard curve: 1-1000 ng·mL^-1.

Another data set concerns the target T2, PARP1 (Homo sapiens, UniProt P09874).
T2 construct: purchased BPS 80501
Briefly: PARP1 enzyme assay (histone-coated plate, chemiluminescence). It counts as biochemical. The settings on record: PARP1 0.02 nM, DNA 0.8 nM, NAD+ 3.5 µM; read-out: PARP-1 IC50.

In data set [2] the test system is MDA-MB-436 breast cancer subcutaneous xenograft tumor model. As to the kind of experiment: In vivo pharmacodynamic study of compound 53 in MDA-MB-436 subcutaneous xenograft tumor model. Also on record: species or system NOD/SCID mice. As to conditions: oral once daily, 30 days; for inhibitory effects on tumor growth (in words): compared to blank control.
Data set [3] has as its system BRCA wild-type DLD-1 cells. As to the kind of experiment: Anti-proliferative activity against cells (CCK8): DLD-1. It counts as cell-based. As to conditions: Homo sapiens, 72 h + 96 h culture. The method in brief: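 DLD-1 cells (1000/well) in RPMI-1640 with 10% FBS, treated 24 h after plating with PARPi at 0, 1 or 10 µM final. Cultured 72 h, medium exchanged with re-added PARPi, then a further 96 h; read-out by CCK8.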

The subject of data set [4] is BRCA-mutated MDA-MB-436 cells. As to the kind of experiment: Anti-proliferative activity against cells (CCK8): MDA-MB-436. The data set is classed as cell-based. As to conditions: Homo sapiens, 72 h + 96 h culture.
Data set [5] can be described thus: Pharmacokinetic evaluation in Balb/c mice. It counts as in vivo. The settings on record: 1mg/kg, PO. On the procedure: Experimental objective: To understand the pharmacokinetic profiles of the compounds. Experimental basis: Technical guidelines for non-clinical pharmacokinetic studies of chemical drugs, 2014.
Experimental scheme: The pharmacokinetic profiles of the compounds were investigated by intravenous administration (1 mg·kg^-1) and intragastric administration (1 mg·kg^-1) in Balb/c mice.
Sample preparation: About 0.2 mg of the compound was weighed out and dissolved in 10 µL of DMSO, and then a sodium chloride solution for injection was added to prepare a 0.1 mg·mL^-1 compound solution for later administration.
Three of the mice were subjected to intravenous administration (IV) at 1 mg·kg^-1, while the other three were subjected to intragastric administration (PO) at 1 mg·kg^-1. About 0.05 mL of blood was collected at 5 min, 15 min, 30 min, 1 h, 2 h, 4 h, 6 h, 8 h, 10 h, 24 h, and 48 h after administration. The collected blood was centrifuged at 3500 rpm for 15 min. The supernatant plasma was then collected and cryopreserved at -40 °C for later analysis. The plasma concentration was quantitatively analyzed using the LC-MS/MS method, and pharmacokinetic parameters such as […] (Cmax), area under plasma concentration-time curve (AUC(0-t)), half-life (T1/2), clearance rate (CL), tissue distribution (Vdss), and bioavailability (F) were calculated. Table 18. Results of pharmacokinetic test of compounds in Balb/c mice

Data set [6] has as its system CD34+ hematopoietic stem and progenitor cells (hmPB34-P-SC). As to the kind of experiment: Hematological toxicity assay (CellTiter-Glo 2.0). It counts as cell-based. As to conditions: 120 h; 5 days of culture. As for the experimental part:
The next day, the cells were resuspended and seeded in a 96-well plate at a concentration of 1000 cells/well, and meanwhile, different concentrations of the drug were added for treatment, with 3 replicate wells set for each concentration. After 5 days of culture, the number of viable cells in each well was determined using a CellTiter-Glo 2.0 kit, followed by detection by a microplate reader.
(In general: Cellular ATP, detected with luciferase, serves as a proxy for viable cell number.)

Data set [7] has as its target T3, hERG potassium ion channel (Homo sapiens, UniProt Q12809).
T3 construct: expressed in transfected cells; host or cells: CHO cells
Briefly: Inhibition of hERG potassium ion channel (Qpatch, CHO cells stably expressing hERG). It counts as cell-based. On the procedure: Cell culture and treatment: CHO cells stably expressing hERG were cultured in a cell culture flask and incubated in an incubator with 5% CO2 at 37 °C. When the cell density reached 60%-80%, the cell culture medium was removed by pipetting. The cells were washed once with PBS, and then Detachin was added for detachment. After complete detachment, a culture medium was added for neutralization. The cells were then centrifuged, and the supernatant was removed by pipetting. A culture medium was further added for resuspension, and the cell density was adjusted to (2-5) × 10^6 cells/mL for later use.
Compound preparation: The compound stock solution was diluted with 100% DMSO. Specifically, 10 µL of the compound stock solution was added to 20 µL of DMSO, followed by a 3-fold serial dilution to obtain 6 concentrations. 4 µL of each of the 6 compound solutions at different concentrations was taken and added to 396 µL of an extracellular fluid, resulting in a 100-fold dilution to obtain 6 intermediate concentrations. Then, 80 µL of each of the 6 intermediate-concentration compound solutions was taken and added to 320 µL of an extracellular fluid, resulting in a 5-fold dilution to achieve the final test concentrations. The highest test concentration was 40 µM. […] DMSO at this concentration has no effect on the hERG potassium channel. During the compound preparation, the entire dilution process was completed by a Bravo instrument.
Electrophysiological recording process: The single-cell high-impedance sealing and whole-cell mode formation processes were all completed automatically by a Qpatch instrument. After achieving the whole-cell recording mode, the cells were clamped at -80 mV. Before a 5-second +40 mV depolarizing stimulus was applied, a 50-millisecond -50 mV prepulse voltage was first applied. The potential was then repolarized to -50 mV and held for 5 s, and finally returned to -80 mV. This voltage stimulation was applied every 15 s. After 2 min of recording, the extracellular fluid was administered, followed by recording for 5 min. Then, the compound administration process began, starting from the lowest test compound concentration. Each test concentration was applied for 2.5 min. After all the concentrations were applied consecutively, the positive control compound, 3 µM Cisapride, was administered. At least 3 cells (n ≥ 3) were tested for each concentration.
Data processing: Data analysis and processing were performed using GraphPad Prism 5.0 and Excel software. The IC50 of the compound was calculated using GraphPad Prism 5 software by equation fitting as follows: Y = Bottom + (Top−Bottom)/(1+10^(∧)((LogIC50−X)*HillSLope)) [formula] where X is the Log value of the test concentration of the test sample, Y is the inhibition percentage at the corresponding concentration, and Bottom and Top are the minimum and maximum inhibition percentages, respectively. Table 17. Results of inhibition of hERG potassium ion channel by compounds
In general terms: Block of hERG is tested as a sign of cardiac risk.

The test system of data set [8] is MDA-MB-436 breast cancer subcutaneous xenograft tumor model. Briefly: In vivo pharmacodynamic study of compound 2 in MDA-MB-436 subcutaneous xenograft tumor model. As to conditions: 100 mg/kg, oral once daily, 30 days.
Procedure: Experimental process: Twenty-four female NOD/SCID mice were used in the experiment. […] All groups were subjected to oral administration once daily. Meanwhile, the mice were weighed every 2 days, and the length and width of the tumors were measured with a vernier caliper. After 30 days of administration, the tumor-bearing mice were anesthetized and sacrificed. The tumor tissues were dissected, weighed, and photographed, and the tumor growth inhibition rates were calculated.
[9] abbreviates: cerebrospinal fluid, read-out: Cerebrospinal fluid.

T2 sequence (P09874 whole entry): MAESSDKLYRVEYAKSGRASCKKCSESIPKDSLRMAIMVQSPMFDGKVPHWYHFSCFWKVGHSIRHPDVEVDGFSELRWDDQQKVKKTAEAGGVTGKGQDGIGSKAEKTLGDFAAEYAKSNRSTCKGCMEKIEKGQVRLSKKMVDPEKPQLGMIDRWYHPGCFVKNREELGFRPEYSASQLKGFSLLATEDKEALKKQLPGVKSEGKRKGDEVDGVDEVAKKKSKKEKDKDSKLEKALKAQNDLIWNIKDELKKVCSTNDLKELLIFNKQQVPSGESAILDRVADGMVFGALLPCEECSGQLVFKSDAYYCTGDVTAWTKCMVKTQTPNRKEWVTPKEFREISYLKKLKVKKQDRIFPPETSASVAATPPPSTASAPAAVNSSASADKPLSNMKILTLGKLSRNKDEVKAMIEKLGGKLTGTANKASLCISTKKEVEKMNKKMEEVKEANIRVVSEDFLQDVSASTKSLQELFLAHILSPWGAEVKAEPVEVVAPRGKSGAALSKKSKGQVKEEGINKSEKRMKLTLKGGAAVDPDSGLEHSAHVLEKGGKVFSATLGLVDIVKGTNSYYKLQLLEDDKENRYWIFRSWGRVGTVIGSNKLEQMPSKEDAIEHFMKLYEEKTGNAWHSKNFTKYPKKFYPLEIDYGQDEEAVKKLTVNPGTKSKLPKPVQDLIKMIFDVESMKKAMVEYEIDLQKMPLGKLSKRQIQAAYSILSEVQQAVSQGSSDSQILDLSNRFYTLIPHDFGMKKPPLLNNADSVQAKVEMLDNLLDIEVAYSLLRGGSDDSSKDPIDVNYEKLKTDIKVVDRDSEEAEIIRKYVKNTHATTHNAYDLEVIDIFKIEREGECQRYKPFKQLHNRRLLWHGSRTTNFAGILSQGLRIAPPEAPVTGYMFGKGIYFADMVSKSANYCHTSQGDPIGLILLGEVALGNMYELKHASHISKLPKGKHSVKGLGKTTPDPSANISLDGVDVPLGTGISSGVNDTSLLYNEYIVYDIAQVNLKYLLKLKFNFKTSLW
T3 sequence (Q12809 whole entry): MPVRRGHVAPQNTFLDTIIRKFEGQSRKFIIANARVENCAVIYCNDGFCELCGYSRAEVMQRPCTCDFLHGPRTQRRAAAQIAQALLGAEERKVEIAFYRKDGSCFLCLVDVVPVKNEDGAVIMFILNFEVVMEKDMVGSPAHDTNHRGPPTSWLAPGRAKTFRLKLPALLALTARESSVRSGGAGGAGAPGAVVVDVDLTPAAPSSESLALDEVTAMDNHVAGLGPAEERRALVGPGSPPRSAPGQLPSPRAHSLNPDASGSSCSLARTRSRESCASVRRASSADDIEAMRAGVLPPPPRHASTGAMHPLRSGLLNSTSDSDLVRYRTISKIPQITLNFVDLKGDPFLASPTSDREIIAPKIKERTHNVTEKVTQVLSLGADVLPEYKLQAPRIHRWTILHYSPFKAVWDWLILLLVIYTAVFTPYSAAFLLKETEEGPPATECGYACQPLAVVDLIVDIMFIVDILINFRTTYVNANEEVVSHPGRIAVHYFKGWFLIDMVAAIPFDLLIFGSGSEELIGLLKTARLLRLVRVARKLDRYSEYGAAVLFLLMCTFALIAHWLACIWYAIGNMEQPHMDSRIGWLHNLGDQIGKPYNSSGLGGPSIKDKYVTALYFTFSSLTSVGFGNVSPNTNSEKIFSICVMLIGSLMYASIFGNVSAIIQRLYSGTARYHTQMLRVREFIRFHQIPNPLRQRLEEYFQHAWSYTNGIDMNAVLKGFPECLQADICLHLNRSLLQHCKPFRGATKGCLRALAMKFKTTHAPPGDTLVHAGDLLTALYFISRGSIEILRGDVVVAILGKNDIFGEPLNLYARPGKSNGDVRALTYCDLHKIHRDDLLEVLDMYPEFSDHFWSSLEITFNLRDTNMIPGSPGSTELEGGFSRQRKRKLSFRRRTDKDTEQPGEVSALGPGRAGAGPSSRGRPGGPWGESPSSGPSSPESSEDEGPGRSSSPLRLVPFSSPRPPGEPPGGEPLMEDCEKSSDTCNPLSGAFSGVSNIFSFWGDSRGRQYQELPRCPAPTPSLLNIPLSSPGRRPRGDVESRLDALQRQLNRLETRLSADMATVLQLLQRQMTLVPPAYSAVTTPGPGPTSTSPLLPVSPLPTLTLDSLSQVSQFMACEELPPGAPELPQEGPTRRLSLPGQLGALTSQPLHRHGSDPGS

With `CNC(=O)c1ccc(N2CCN(CC3Cc4[nH]c(=O)c(C(F)F)cc4CO3)CC2)c(F)n1` (centres unmarked) [Example 43, 5-(4-((3-(Difluoromethyl)-2-oxo-1,5,7,8-tetrahydro-2H-pyrano[4,3-b]pyridin-7-yl)methyl)piperazin-1-yl)-6-fluoro-N-methylpicolinamide], the results for the IC50 against PARP6 and at PARP1 were above 10000 nM and 50 to 500 nM, respectively. Also, the “inhibitory effects on PARP6 (in words)” value against PARP6 (conclusion of Table 21) is “Conclusion: Compounds 2, 43, etc., of the present disclosure exhibited relatively weak inhibitory effects on PARP6, demonstrating high selectivity”. In addition, the concentration at 0.25 h in data set [1] (setting [9]) stood at 16 ng/g; in data set [1] (plasma, read-out: Plasma), 8030 ng/mL. The concentration at 2 h was determined as 3 ng/g in data set [1] (setting [9]) and 7690 ng/mL in data set [1] (plasma, read-out: Plasma).
On to `CNC(=O)c1ccc(N2CCN(Cc3ccc4nc(C)c(=O)[nH]c4c3F)CC2)c(F)n1` [AZD9574, reference compound], for which, in data set [2] (3 mg/kg), the “inhibitory effects on tumor growth (in words)” value is listed as “significant inhibitory effects on tumor growth”.
The compound `CCc1cc2ncc(CN3CCN(c4ccc(C(=O)NC)nc4)CC3)cc2[nH]c1=O` [AZD5305, reference compound] returned an IC50 at PARP6 of 8190 nM.
Take `CCc1nc2c([nH]c1=O)C[C@@H](CN1CC=C(c3ccc(C(=O)NC)nc3F)CC1)CC2` [Example 53, (S)-1'-((2-Ethyl-3-oxo-3,4,5,6,7,8-hexahydroquinoxalin-6-yl)methyl)-2-fluoro-N-methyl-1',2', 3',6'-tetrahydro-[3,4'-bipyridine]-6-carboxamide]: in data set [3], the IC50 is above 1000 nM. In [4], the IC50 turned out to be 1.5 nM. In data set [5], this compound yielded a CL of 0.67 mL/min/kg and a Vdss of 0.42 L/kg. In addition, in [5] (male, mouse, plasma), the AUC(0-t) stood at 22300 ng·h/mL, the Cmax amounted to 3650 ng/mL and the half-life is 7.1 h. For the same compound, in data set [2] (1 mg/kg), the “anti-tumor effect compared with the AZD9574 (3 mg/kg) group (in words)” value was “superior” and the “inhibitory effects on tumor growth (in words)” value is “significant inhibitory effects on tumor growth”. In addition, on PARP1, the IC50 was at most 50 nM.
In the case of `C=Cc1cc2c([nH]c1=O)CC(CN1CCN(c3ccc(C(=O)NC)nc3F)CC1)OC2` (centres unmarked) [Example 67, 6-Fluoro-N-methyl-5-(4-((2-oxo-3-vinyl-1,5,7,8-tetrahydro-2H-pyrano[4,3-b]pyridin-7-yl)methyl)piperazin-1-yl)picolinamide], the figures for the IC50 (in data set [3]; in data set [6]; at PARP1) were above 1000 nM, above 1000 nM and at most 50 nM, respectively. In addition, the “inhibitory effects on the hERG potassium ion channel (in words)” value in data set [7] (conclusion of Table 17) is “Conclusion: Compounds 2, 6, 45, 62, 67, 74, 83, 87, etc., of the present disclosure exhibited relatively weak inhibitory effects on the hERG potassium ion channel”. Further, the inhibition at 2.5 min, 20 µM in data set [7] (human, 20 µM, CHO cells stably expressing hERG, read-out: Inhibition rate at 20 µM) came out at 4.18%.
In [6], `O=C(c1cc(Cc2n[nH]c(=O)c3ccccc23)ccc1F)N1CCN(C(=O)C2CC2)CC1` [Olaparib, reference compound] showed an IC50 of 200 nM. Also, in data set [8], the “tumor growth inhibition rate” value is 65.81%.
